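Protocol summary: plate cells (96-well), add compound at 5 concentrations, incubate 48 h, interpolate endpoints linearly. GI50 = concentration required for 50% inhibition of growth. The concentration for full growth arrest is given as TGI.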
Assays:
Test in all cases: NCI anticancer screen, dose series, 48 h; in the data active means GI50 below about 0.43 µM; inactive means the rest
MOLT-4 leukemia = test system: MOLT-4 leukemia
OVCAR-5 ovarian = test system: OVCAR-5 ovarian
SNB-75 CNS = test system: SNB-75 CNS
EKVX NSCLC = test system: EKVX NSCLC
T-47D breast = test system: T-47D breast
UACC-257 melanoma = test system: UACC-257 melanoma
SK-MEL-5 melanoma = test system: SK-MEL-5 melanoma
A498 renal = test system: A498 renal
LOX IMVI melanoma = test system: LOX IMVI melanoma
DU-145 prostate = test system: DU-145 prostate
K-562 leukemia = test system: K-562 leukemia
UO-31 renal = test system: UO-31 renal
MDA-MB-435 = test system: MDA-MB-435
MDA-MB-231 breast = test system: MDA-MB-231 breast
NCI-H460 lung = test system: NCI-H460 lung
PC-3 prostate = test system: PC-3 prostate
ACHN renal = test system: ACHN renal
SK-OV-3 ovarian = test system: SK-OV-3 ovarian
HOP-92 NSCLC = test system: HOP-92 NSCLC
SF-268 CNS = test system: SF-268 CNS
HCT-15 colon = test system: HCT-15 colon
HS 578T breast = test system: HS 578T breast
A549 NSCLC = test system: A549 NSCLC
COLO 205 colon = test system: COLO 205 colon
CCRF-CEM leukemia = test system: CCRF-CEM leukemia
CAKI-1 renal = test system: CAKI-1 renal
HT29 colon = test system: HT29 colon
OVCAR-4 ovarian = test system: OVCAR-4 ovarian
NCI-H23 lung = test system: NCI-H23 lung
SW-620 colon = test system: SW-620 colon
UACC-62 melanoma = test system: UACC-62 melanoma
HCT-116 colon = test system: HCT-116 colon
NCI-H226 lung = test system: NCI-H226 lung
IGROV1 ovarian = test system: IGROV1 ovarian
NCI-H522 lung = test system: NCI-H522 lung
OVCAR-3 ovarian = test system: OVCAR-3 ovarian
NCI/ADR-RES ovarian = test system: NCI/ADR-RES ovarian
RPMI-8226 leukemia = test system: RPMI-8226 leukemia
OVCAR-8 ovarian = test system: OVCAR-8 ovarian
HCC-2998 colon = test system: HCC-2998 colon
HOP-62 NSCLC = test system: HOP-62 NSCLC
SR leukemia = test system: SR leukemia
MCF7 breast = test system: MCF7 breast
MALME-3M melanoma = test system: MALME-3M melanoma
BT-549 breast = test system: BT-549 breast
U251 CNS = test system: U251 CNS
786-0 renal = test system: 786-0 renal
SF-295 CNS = test system: SF-295 CNS
KM12 colon = test system: KM12 colon
SN12C renal = test system: SN12C renal
SK-MEL-28 melanoma = test system: SK-MEL-28 melanoma
RXF 393 renal = test system: RXF 393 renal
M14 melanoma = test system: M14 melanoma
SNB-19 CNS = test system: SNB-19 CNS
HL-60(TB) leukemia = test system: HL-60(TB) leukemia
TK-10 renal = test system: TK-10 renal
SF-539 CNS = test system: SF-539 CNS
SK-MEL-2 melanoma = test system: SK-MEL-2 melanoma

Cc1ccccc1C(C(=O)NC1CCCCC1)N(C(=O)Cn1ccnc1C)c1cccc(F)c1 (stereo unspecified)
> 83.9 µM: TGI (A498 renal)
> 66.5 µM: TGI (SF-539 CNS)
inactive: GI50 (MOLT-4 leukemia) > 100 µM | GI50 (OVCAR-5 ovarian) > 100 µM | GI50 (SNB-75 CNS) 15.6 µM | GI50 (EKVX NSCLC) > 100 µM | GI50 (T-47D breast) > 58.4 µM | GI50 (UACC-257 melanoma) > 100 µM | GI50 (SK-MEL-5 melanoma) > 100 µM | GI50 (A498 renal) 27.1 µM | GI50 (LOX IMVI melanoma) 44 µM | GI50 (DU-145 prostate) > 76.6 µM | GI50 (K-562 leukemia) > 100 µM | GI50 (UO-31 renal) > 51.6 µM | GI50 (MDA-MB-435) > 100 µM | GI50 (MDA-MB-231 breast) 35.8 µM | GI50 (NCI-H460 lung) > 100 µM | GI50 (PC-3 prostate) > 100 µM | GI50 (ACHN renal) > 58.7 µM | GI50 (SK-OV-3 ovarian) > 65.4 µM | GI50 (HOP-92 NSCLC) 20 µM | GI50 (SF-268 CNS) > 66.5 µM | GI50 (HCT-15 colon) > 100 µM | GI50 (HS 578T breast) 28.2 µM | GI50 (A549 NSCLC) > 100 µM | GI50 (COLO 205 colon) > 92.1 µM | GI50 (CCRF-CEM leukemia) > 100 µM | GI50 (CAKI-1 renal) > 57.4 µM | GI50 (HT29 colon) > 100 µM | GI50 (OVCAR-4 ovarian) > 76.7 µM | GI50 (NCI-H23 lung) > 58 µM | GI50 (SW-620 colon) > 100 µM | GI50 (UACC-62 melanoma) 59.3 µM | GI50 (HCT-116 colon) 46.2 µM | GI50 (NCI-H226 lung) > 87.4 µM | GI50 (IGROV1 ovarian) > 77 µM | GI50 (NCI-H522 lung) > 100 µM | GI50 (OVCAR-3 ovarian) > 69.5 µM | GI50 (NCI/ADR-RES ovarian) > 100 µM | GI50 (RPMI-8226 leukemia) > 100 µM | GI50 (OVCAR-8 ovarian) > 82.6 µM | GI50 (HCC-2998 colon) > 100 µM | GI50 (HOP-62 NSCLC) > 60.4 µM | GI50 (SR leukemia) > 100 µM | GI50 (MCF7 breast) > 74 µM | GI50 (MALME-3M melanoma) > 52.8 µM | GI50 (BT-549 breast) > 52.6 µM | GI50 (U251 CNS) > 52.1 µM | GI50 (786-0 renal) 37.2 µM | GI50 (SF-295 CNS) 28.8 µM | GI50 (KM12 colon) > 100 µM | GI50 (SN12C renal) > 53.4 µM | GI50 (SK-MEL-28 melanoma) > 100 µM | GI50 (RXF 393 renal) 7.5 µM | GI50 (M14 melanoma) > 100 µM | GI50 (SNB-19 CNS) 57 µM | GI50 (HL-60(TB) leukemia) > 100 µM | GI50 (TK-10 renal) 27.5 µM | GI50 (SF-539 CNS) 33.1 µM | GI50 (SK-MEL-2 melanoma) 21.3 µM
40.5 µM: TGI (RXF 393 renal)
79.3 µM: TGI (SK-MEL-2 melanoma)
> 100 µM: TGI (MOLT-4 leukemia) | TGI (OVCAR-5 ovarian) | TGI (EKVX NSCLC) | TGI (T-47D breast) | TGI (UACC-257 melanoma) | TGI (SK-MEL-5 melanoma) | TGI (LOX IMVI melanoma) | TGI (DU-145 prostate) | TGI (K-562 leukemia) | TGI (UO-31 renal) | TGI (MDA-MB-435) | TGI (MDA-MB-231 breast) | TGI (NCI-H460 lung) | TGI (PC-3 prostate) | TGI (ACHN renal) | TGI (SK-OV-3 ovarian) | TGI (HOP-92 NSCLC) | TGI (SF-268 CNS) | TGI (HCT-15 colon) | TGI (HS 578T breast) | TGI (A549 NSCLC) | TGI (COLO 205 colon) | TGI (CCRF-CEM leukemia) | TGI (CAKI-1 renal) | TGI (HT29 colon) | TGI (OVCAR-4 ovarian) | TGI (NCI-H23 lung) | TGI (SW-620 colon) | TGI (UACC-62 melanoma) | TGI (HCT-116 colon) | TGI (NCI-H226 lung) | TGI (IGROV1 ovarian) | TGI (NCI-H522 lung) | TGI (OVCAR-3 ovarian) | TGI (NCI/ADR-RES ovarian) | TGI (RPMI-8226 leukemia) | TGI (OVCAR-8 ovarian) | TGI (HCC-2998 colon) | TGI (HOP-62 NSCLC) | TGI (SR leukemia) | TGI (MCF7 breast) | TGI (MALME-3M melanoma) | TGI (BT-549 breast) | TGI (U251 CNS) | TGI (786-0 renal) | TGI (KM12 colon) | TGI (SN12C renal) | TGI (SK-MEL-28 melanoma) | TGI (M14 melanoma) | TGI (SNB-19 CNS) | TGI (HL-60(TB) leukemia)
71.7 µM: TGI (TK-10 renal)
59.1 µM: TGI (SNB-75 CNS)
> 65.6 µM: TGI (SF-295 CNS)

Source: PubChem BioAssay (NCI)
